Laboratory results published in patent publication US20090048258A1, “Amide Compound” (priority 2005, published 2009).

The compounds below were run against T1, Human DGAT1 (Homo sapiens, UniProt O75907) (assay: DGAT inhibitory activity: [14C]-triglyceride synthesis by DGAT1 high expression Sf9 microsome). Conditions: Table 2, 25 μM dioleoylglycerol, 25 μM [14C]-Oleoyl-CoA, 32° C., 15 min, read-out: DGAT inhibitory activity (according to IC50).
T1 construct: my translation of the primer: M-G-DYKDDDD-GDRGSSRRR) (N); made in house; host or cells: Sf9 insect cells (recombinant baculovirus BAC-DGAT1, pFASTBAC1); microsome fraction
T1 sequence (O75907 1-488): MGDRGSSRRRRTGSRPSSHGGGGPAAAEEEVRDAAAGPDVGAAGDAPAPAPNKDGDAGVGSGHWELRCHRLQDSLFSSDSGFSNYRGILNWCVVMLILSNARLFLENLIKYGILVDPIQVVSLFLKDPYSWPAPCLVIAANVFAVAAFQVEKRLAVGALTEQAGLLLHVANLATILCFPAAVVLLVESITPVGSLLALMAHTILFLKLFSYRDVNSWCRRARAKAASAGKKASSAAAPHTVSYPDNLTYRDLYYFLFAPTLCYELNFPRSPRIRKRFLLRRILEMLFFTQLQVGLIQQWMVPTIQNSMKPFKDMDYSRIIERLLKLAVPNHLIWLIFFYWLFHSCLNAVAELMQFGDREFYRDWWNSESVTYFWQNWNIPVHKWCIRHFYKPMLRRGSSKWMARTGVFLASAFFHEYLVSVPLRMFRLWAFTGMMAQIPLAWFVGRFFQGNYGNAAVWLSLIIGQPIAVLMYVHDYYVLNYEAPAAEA
Type: biochemical
Summary of the method: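 DGAT1 was overexpressed from recombinant baculovirus in Sf9 cells, and microsomes from these cells were the enzyme source. Reactions ran in 100 mM Tris-HCl pH 7.5, 250 mM sucrose, 150 mM MgCl2 and 0.01% BSA. [14C]-triglyceride was extracted into chloroform, separated by TLC and quantified by imaging plate, with inhibition calculated against control and blank (no microsome) counts.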
In the case of `COc1ccc(-c2cc(NC(=O)CCC(=O)c3ccc4c(c3)CCO4)nc(-c3ccccc3)c2)cc1` [Example 155, 4-(2,3-dihydro-1-benzofuran-5-yl)-N-[4-(4-methoxyphenyl)-6-phenylpyridin-2-yl]-4-oxobutanamide], the IC50 is reported as 50 to 500 nM. Compound `O=C(CCC(=O)c1ccc2c(c1)CCO2)Nc1cc(-c2ccc(CO)cc2)cc(-c2ccccc2)n1` [Example 156, 4-(2,3-dihydro-1-benzofuran-5-yl)-N-{4-[4-(hydroxymethyl)phenyl]-6-phenylpyridin-2-yl}-4-oxobutanamide] has an IC50 of 50 to 500 nM. `O=C(O)CCc1ccc(-c2cc(NC(=O)CCC(=O)c3ccc4c(c3)CCO4)nc(-c3ccccc3)c2)cc1` [Example 157, 3-[4-(2-{[4-(2,3-dihydro-1-benzofuran-5-yl)-4-oxobutanoyl]amino}-6-phenylpyridin-4-yl)phenyl]propanoic acid] was tested, and the IC50 was 500 to 10000 nM. In the case of `COC(=O)CCc1ccc(-c2cc(NC(=O)CCC(=O)c3ccc4c(c3)CCO4)nc(-c3ccccc3)c2)cc1` [Example 158, methyl 3-[4-(2-{[4-(2,3-dihydro-1-benzofuran-5-yl)-4-oxobutanoyl]amino}-6-phenylpyridin-4-yl)phenyl]propanoate], the IC50 is reported as 50 to 500 nM. Compound `COC(=O)/C=C/c1ccc(-c2cc(NC(=O)CCC(=O)c3ccc4c(c3)CCO4)nc(-c3ccccc3)c2)cc1` [Example 159, methyl (2E)-3-[4-(2-{[4-(2,3-dihydro-1-benzofuran-5-yl)-4-oxobutanoyl]amino}-6-phenylpyridin-4-yl)phenyl]acrylate] has an IC50 of 500 to 10000 nM. With `O=C(CCC(=O)c1ccc2c(c1)CCO2)Nc1cc(-c2ccc(N3CCOCC3)cc2)cc(-c2ccccc2)n1` [Example 160, 4-(2,3-dihydro-1-benzofuran-5-yl)-N-[4-(4-(morpholin-4-yl)phenyl)-6-phenylpyridin-2-yl]-4-oxobutanamide] the IC50 was 500 to 10000 nM. For `O=C(CCC(=O)c1ccc2c(c1)CCO2)Nc1cc(-c2ccc(CN3CCOCC3)cc2)cc(-c2ccccc2)n1` [Example 161, 4-(2,3-dihydro-1-benzofuran-5-yl)-N-{4-[4-(morpholin-4-ylmethyl)phenyl]-6-phenylpyridin-2-yl}-4-oxobutanamide], the IC50 was 500 to 10000 nM. `CN(C)c1ccc(-c2cc(NC(=O)CCC(=O)c3ccc4c(c3)CCO4)nc(-c3ccccc3)c2)cc1` [Example 162, 4-(2,3-dihydro-1-benzofuran-5-yl)-N-{4-[4-(dimethylamino)phenyl]-6-phenylpyridin-2-yl}-4-oxobutanamide] was tested, and the IC50 was 50 to 500 nM. In the case of `N#Cc1cccc(-c2cc(NC(=O)CCC(=O)c3ccc4c(c3)CCO4)nc(-c3ccccc3)c2)c1` [Example 163, N-[4-(3-cyanophenyl)-6-phenylpyridin-2-yl]-4-(2,3-dihydro-1-benzofuran-5-yl)-4-oxobutanamide], the IC50 is reported as 50 to 500 nM. For `N#CCc1cccc(-c2cc(NC(=O)CCC(=O)c3ccc4c(c3)CCO4)nc(-c3ccccc3)c2)c1` [Example 164, N-{4-[3-(cyanomethyl)phenyl]-6-phenylpyridin-2-yl}-4-(2,3-dihydro-1-benzofuran-5-yl)-4-oxobutanamide], the IC50 was 10 to 50 nM. Work on `O=C(CCC(=O)c1ccc2c(c1)CCO2)Nc1cc(-c2cccc(O)c2)cc(-c2ccccc2)n1` [Example 165, 4-(2,3-dihydro-1-benzofuran-5-yl)-N-[4-(3-hydroxyphenyl)-6-phenylpyridin-2-yl]-4-oxobutanamide] yielded an IC50 of 10 to 50 nM. `CCCCOc1cccc(-c2cc(NC(=O)CCC(=O)c3ccc4c(c3)CCO4)nc(-c3ccccc3)c2)c1` [Example 166, N-[4-(3-butoxyphenyl)-6-phenylpyridin-2-yl]-4-(2,3-dihydro-1-benzofuran-5-yl)-4-oxobutanamide] gave an IC50 of 500 to 10000 nM. Compound `O=C(CCC(=O)c1ccc2c(c1)CCO2)Nc1cc(-c2cccc(CO)c2)cc(-c2ccccc2)n1` [Example 167, 4-(2,3-dihydro-1-benzofuran-5-yl)-N-{4-[3-(hydroxymethyl)phenyl]-6-phenylpyridin-2-yl}-4-oxobutanamide] has an IC50 of 50 to 500 nM. Work on `O=C(CCC(=O)c1ccc2c(c1)CCO2)Nc1cc(-c2cccc(CCCO)c2)cc(-c2ccccc2)n1` [Example 168, 4-(2,3-dihydro-1-benzofuran-5-yl)-N-{4-[3-(3-hydroxypropyl)phenyl]-6-phenylpyridin-2-yl}-4-oxobutanamide] yielded an IC50 of 50 to 500 nM. Compound `O=C(CCC(=O)c1ccc2c(c1)CCO2)Nc1cc(-c2cccc(C(=O)O)c2)cc(-c2ccccc2)n1` [Example 169, 3-(2-{[4-(2,3-dihydro-1-benzofuran-5-yl)-4-oxobutanoyl]amino}-6-phenylpyridin-4-yl)benzoic acid] has an IC50 of 500 to 10000 nM. With `COC(=O)c1cccc(-c2cc(NC(=O)CCC(=O)c3ccc4c(c3)CCO4)nc(-c3ccccc3)c2)c1` [Example 170, methyl 3-(2-{[4-(2,3-dihydro-1-benzofuran-5-yl)-4-oxobutanoyl]amino}-6-phenylpyridin-4-yl)benzoate] the IC50 was 500 to 10000 nM. `CC(=O)c1cccc(-c2cc(NC(=O)CCC(=O)c3ccc4c(c3)CCO4)nc(-c3ccccc3)c2)c1` [Example 171, N-[4-(3-acetylphenyl)-6-phenylpyridin-2-yl]-4-(2,3-dihydro-1-benzofuran-5-yl)-4-oxobutanamide] showed an IC50 of 50 to 500 nM. Compound `O=C(O)CCc1cccc(-c2cc(NC(=O)CCC(=O)c3ccc4c(c3)CCO4)nc(-c3ccccc3)c2)c1` [Example 172, 3-[3-(2-{[4-(2,3-dihydro-1-benzofuran-5-yl)-4-oxobutanoyl]amino}-6-phenylpyridin-4-yl)phenyl]propanoic acid] has an IC50 of 500 to 10000 nM. `COC(=O)CCc1cccc(-c2cc(NC(=O)CCC(=O)c3ccc4c(c3)CCO4)nc(-c3ccccc3)c2)c1` [Example 173, methyl 3-[3-(2-{[4-(2,3-dihydro-1-benzofuran-5-yl)-4-oxobutanoyl]amino}-6-phenylpyridin-4-yl)phenyl]propanoate] gave an IC50 of 10 to 50 nM. `O=C(O)/C=C/c1cccc(-c2cc(NC(=O)CCC(=O)c3ccc4c(c3)CCO4)nc(-c3ccccc3)c2)c1` [Example 174, (2E)-3-[3-(2-{[4-(2,3-dihydro-1-benzofuran-5-yl)-4-oxobutanoyl]amino)-6-phenylpyridin-4-yl)phenyl]acrylic acid] showed an IC50 of 500 to 10000 nM. `O=C(CCC(=O)c1ccc2c(c1)CCO2)Nc1cc(-c2cccc(OC(F)(F)F)c2)cc(-c2ccccc2)n1` [Example 175, 4-(2,3-dihydro-1-benzofuran-5-yl)-4-oxo-N-{6-phenyl-4-[3-(trifluoromethoxy)phenyl]pyridin-2-yl}butanamide] gave an IC50 of 50 to 500 nM. `N#Cc1ccccc1-c1cc(NC(=O)CCC(=O)c2ccc3c(c2)CCO3)nc(-c2ccccc2)c1` [Example 176, N-[4-(2-cyanophenyl)-6-phenylpyridin-2-yl]-4-(2,3-dihydro-1-benzofuran-5-yl)-4-oxobutanamide] was tested, and the IC50 was ≤ 10 nM. `O=C(CCC(=O)c1ccc2c(c1)CCO2)Nc1cc(-c2ccccc2O)cc(-c2ccccc2)n1` [Example 177, 4-(2,3-dihydro-1-benzofuran-5-yl)-N-[4-(2-hydroxyphenyl)-6-phenylpyridin-2-yl]-4-oxobutanamide] showed an IC50 of 10 to 50 nM. Compound `COc1ccccc1-c1cc(NC(=O)CCC(=O)c2ccc3c(c2)CCO3)nc(-c2ccccc2)c1` [Example 178, 4-(2,3-dihydro-1-benzofuran-5-yl)-N-[4-(2-methoxyphenyl)-6-phenylpyridin-2-yl]-4-oxobutanamide] has an IC50 of 10 to 50 nM. In the case of `O=C(CCC(=O)c1ccc2c(c1)CCO2)Nc1cc(-c2ccccc2CO)cc(-c2ccccc2)n1` [Example 179, 4-(2,3-dihydro-1-benzofuran-5-yl)-N-{4-[2-(hydroxymethyl)phenyl]-6-phenylpyridin-2-yl}-4-oxobutanamide], the IC50 is reported as 50 to 500 nM. Compound `O=C(CCC(=O)c1ccc2c(c1)CCO2)Nc1cc(-c2ccccc2C(=O)O)cc(-c2ccccc2)n1` [Example 180, 2-(2-{[4-(2,3-dihydro-1-benzofuran-5-yl)-4-oxobutanoyl]amino}-6-phenylpyridin-4-yl)benzoic acid] has an IC50 of 500 to 10000 nM. For `COc1cc(-c2cc(NC(=O)CCC(=O)c3ccc4c(c3)CCO4)nc(-c3ccccc3)c2)ccc1O` [Example 181, 4-(2,3-dihydro-1-benzofuran-5-yl)-N-[4-(4-hydroxy-3-methoxyphenyl)-6-phenylpyridin-2-yl]-4-oxobutanamide], the IC50 was 10 to 50 nM. `COc1cc(-c2cc(NC(=O)CCC(=O)c3ccc4c(c3)CCO4)nc(-c3ccccc3)c2)cc(OC)c1OC` [Example 182, 4-(2,3-dihydro-1-benzofuran-5-yl)-4-oxo-N-[6-phenyl-4-(3,4,5-trimethoxyphenyl)pyridin-2-yl]butanamide] was tested, and the IC50 was 500 to 10000 nM. `Cc1cc(-c2cc(NC(=O)CCC(=O)c3ccc4c(c3)CCO4)nc(-c3ccccc3)c2)cc(C)c1O` [Example 183, 4-(2,3-dihydro-1-benzofuran-5-yl)-N-[4-(4-hydroxy-3,5-dimethylphenyl)-6-phenylpyridin-2-yl]-4-oxobutanamide] showed an IC50 of 50 to 500 nM. `CCCCCC/C=C/c1cc(NC(=O)CCC(=O)c2ccc3c(c2)CCO3)nc(-c2ccccc2)c1` [Example 184, 4-(2,3-dihydro-1-benzofuran-5-yl)-N-{4-[(1E)-octa-1-en-1-yl]-6-phenylpyridin-2-yl}-4-oxobutanamide] showed an IC50 of 500 to 10000 nM.
